Measured values taken from patent US20070077279A1, “Novel compositions containing polyphenols” (DSM IP Assets B.V., priority 2005, published 2007).

How the values were obtained:
Assay type in all cases: physicochemical
[1] = Storage test of lozenges at room temperature (25° C./60% relative humidity) in closed polypropylene tubes; conditions: for Vitamin/polyphenol in mg/tablet, 1 month: lozenges of Example 1, 1 month; for Vitamin/polyphenol in mg/tablet, 2 months: lozenges of Example 1, 2 months; for Vitamin/polyphenol in mg/tablet, 3 months: lozenges of Example 1, 3 months; for Vitamin/polyphenol in mg/tablet, 6 months: lozenges of Example 1, 6 months; for Vitamin/polyphenol in mg/tablet, 12 months: lozenges of Example 1, 12 months; for Vitamin/polyphenol in mg/tablet, 18 months: lozenges of Example 1, 18 months; for Vitamin/polyphenol in mg/tablet, 24 months: lozenges of Example 1, 24 months
[2] = Storage test of chewable tablets at room temperature (25° C./60% relative humidity) in closed polypropylene tubes; conditions: for Vitamin/polyphenol in mg/tablet, 1 month: chewable tablets of Example 2, 1 month; for Vitamin/polyphenol in mg/tablet, 2 months: chewable tablets of Example 2, 2 months; for Vitamin/polyphenol in mg/tablet, 3 months: chewable tablets of Example 2, 3 months; for Vitamin/polyphenol in mg/tablet, 6 months: chewable tablets of Example 2, 6 months; for Vitamin/polyphenol in mg/tablet, 12 months: chewable tablets of Example 2, 12 months
[3] = Storage test of lozenges under accelerated conditions (40° C./75% relative humidity) in closed polypropylene tubes; conditions: lozenges of Example 1; for Initial Assay, vitamin/polyphenol in mg/tablet: 40° C./75% relative humidity study; for Vitamin/polyphenol in mg/tablet, 1 month 40° C. / Vitamin/polyphenol in mg/tablet, 2 months 40° C. / Vitamin/polyphenol in mg/tablet, 3 months 40° C.: 40° C./75% relative humidity
[4] = Storage test of chewable tablets under accelerated conditions (40° C./75% relative humidity) in closed polypropylene tubes; conditions: chewable tablets of Example 2; for Initial Assay, vitamin/polyphenol in mg/tablet: 40° C./75% relative humidity study; for Vitamin/polyphenol in mg/tablet, 1 month 40° C. / Vitamin/polyphenol in mg/tablet, 2 months 40° C. / Vitamin/polyphenol in mg/tablet, 3 months 40° C.: 40° C./75% relative humidity
[5] = lozenges of Example 1, initial (Table 2)
[6] = chewable tablets of Example 2, initial
[7] = chewable tablets of Example 2, initial (Table 4)

O=C(O[C@@H]1Cc2c(O)cc(O)cc2O[C@@H]1c1cc(O)c(O)c(O)c1)c1cc(O)c(O)c(O)c1 [EGCG, epigallocatechin gallate]
Vitamin/polyphenol in mg/tablet, 1 month [1]: 11.8 mg | Vitamin/polyphenol in mg/tablet, 2 months [1]: 10.9 mg | Vitamin/polyphenol in mg/tablet, 3 months [1]: 11.0 mg | Vitamin/polyphenol in mg/tablet, 6 months [1]: 10.6 mg | Vitamin/polyphenol in mg/tablet, 12 months [1]: 11.6 mg | Vitamin/polyphenol in mg/tablet, 18 months [1]: 12.0 mg | Vitamin/polyphenol in mg/tablet, 24 months [1]: 11.3 mg | Initial Assay, vitamin/polyphenol in mg/tablet ([1]; lozenges of Example 1, initial): 11.9 mg | Initial Assay, vitamin/polyphenol in mg/tablet [1, 5]: 11.9 mg | Vitamin/polyphenol in mg/tablet, 1 month [2]: 23.0 mg | Vitamin/polyphenol in mg/tablet, 2 months [2]: 23.8 mg | Vitamin/polyphenol in mg/tablet, 3 months [2]: 24.1 mg | Vitamin/polyphenol in mg/tablet, 6 months [2]: 23.7 mg | Vitamin/polyphenol in mg/tablet, 12 months [2]: 22.6 mg | Initial Assay, vitamin/polyphenol in mg/tablet [2, 6]: 23.8 mg | Initial Assay, vitamin/polyphenol in mg/tablet [2, 7]: 23.8 mg | Initial Assay, vitamin/polyphenol in mg/tablet [3]: 11.9 mg | Vitamin/polyphenol in mg/tablet, 1 month 40° C. [3]: 11.8 mg | Vitamin/polyphenol in mg/tablet, 2 months 40° C. [3]: 11.4 mg | Vitamin/polyphenol in mg/tablet, 3 months 40° C. [3]: 10.6 mg | Initial Assay, vitamin/polyphenol in mg/tablet [4]: 23.8 mg | Vitamin/polyphenol in mg/tablet, 1 month 40° C. [4]: 24.8 mg | Vitamin/polyphenol in mg/tablet, 2 months 40° C. [4]: 23.2 mg | Vitamin/polyphenol in mg/tablet, 3 months 40° C. [4]: 23.2 mg

O=C1O[C@H]([C@@H](O)CO)C(O)=C1O [Vit C, Ascorbic Acid]
Vitamin/polyphenol in mg/tablet, 1 month [1]: 11.4 mg | Vitamin/polyphenol in mg/tablet, 2 months [1]: 12.2 mg | Vitamin/polyphenol in mg/tablet, 3 months [1]: 11.3 mg | Vitamin/polyphenol in mg/tablet, 6 months [1]: 12.3 mg | Vitamin/polyphenol in mg/tablet, 12 months [1]: 12.1 mg | Vitamin/polyphenol in mg/tablet, 18 months [1]: 12.0 mg | Vitamin/polyphenol in mg/tablet, 24 months [1]: 11.9 mg | Initial Assay, vitamin/polyphenol in mg/tablet ([1]; lozenges of Example 1, initial): 12.2 mg | Initial Assay, vitamin/polyphenol in mg/tablet [1, 5]: 12.2 mg | Vitamin/polyphenol in mg/tablet, 1 month [2]: 32.3 mg | Vitamin/polyphenol in mg/tablet, 2 months [2]: 33.3 mg | Vitamin/polyphenol in mg/tablet, 3 months [2]: 36.1 mg | Vitamin/polyphenol in mg/tablet, 6 months [2]: 32.5 mg | Vitamin/polyphenol in mg/tablet, 12 months [2]: 33.0 mg | Initial Assay, vitamin/polyphenol in mg/tablet [2, 6]: 33.7 mg | Initial Assay, vitamin/polyphenol in mg/tablet [2, 7]: 33.7 mg | Initial Assay, vitamin/polyphenol in mg/tablet [3]: 12.2 mg | Vitamin/polyphenol in mg/tablet, 1 month 40° C. [3]: 11.2 mg | Vitamin/polyphenol in mg/tablet, 2 months 40° C. [3]: 11.1 mg | Vitamin/polyphenol in mg/tablet, 3 months 40° C. [3]: 11.2 mg | Initial Assay, vitamin/polyphenol in mg/tablet [4]: 33.7 mg | Vitamin/polyphenol in mg/tablet, 1 month 40° C. [4]: 31.8 mg | Vitamin/polyphenol in mg/tablet, 2 months 40° C. [4]: 32.4 mg | Vitamin/polyphenol in mg/tablet, 3 months 40° C. [4]: 33.6 mg

CC(=O)Oc1c(C)c(C)c2c(c1C)CCC(C)(CCC[C@H](C)CCC[C@H](C)CCCC(C)C)O2 (stereo partly drawn) [Vit E, Tocopherol Acetate]
Vitamin/polyphenol in mg/tablet, 1 month [1]: 1.7 mg | Vitamin/polyphenol in mg/tablet, 2 months [1]: 1.7 mg | Vitamin/polyphenol in mg/tablet, 3 months [1]: 1.8 mg | Vitamin/polyphenol in mg/tablet, 6 months [1]: 1.6 mg | Vitamin/polyphenol in mg/tablet, 12 months [1]: 1.5 mg | Vitamin/polyphenol in mg/tablet, 18 months [1]: 1.6 mg | Vitamin/polyphenol in mg/tablet, 24 months [1]: 1.7 mg | Initial Assay, vitamin/polyphenol in mg/tablet ([1]; lozenges of Example 1, initial): 1.6 mg | Initial Assay, vitamin/polyphenol in mg/tablet [1, 5]: 1.6 mg | Vitamin/polyphenol in mg/tablet, 1 month [2]: 8.4 mg | Vitamin/polyphenol in mg/tablet, 2 months [2]: 8.5 mg | Vitamin/polyphenol in mg/tablet, 3 months [2]: 8.6 mg | Vitamin/polyphenol in mg/tablet, 6 months [2]: 8.3 mg | Vitamin/polyphenol in mg/tablet, 12 months [2]: 8.6 mg | Initial Assay, vitamin/polyphenol in mg/tablet [2, 6]: 8.3 mg | Initial Assay, vitamin/polyphenol in mg/tablet [2, 7]: 8.3 mg | Initial Assay, vitamin/polyphenol in mg/tablet [3]: 1.6 mg | Vitamin/polyphenol in mg/tablet, 1 month 40° C. [3]: 1.6 mg | Vitamin/polyphenol in mg/tablet, 2 months 40° C. [3]: 1.6 mg | Vitamin/polyphenol in mg/tablet, 3 months 40° C. [3]: 1.8 mg | Initial Assay, vitamin/polyphenol in mg/tablet [4]: 8.3 mg | Vitamin/polyphenol in mg/tablet, 1 month 40° C. [4]: 8.7 mg | Vitamin/polyphenol in mg/tablet, 2 months 40° C. [4]: 8.5 mg | Vitamin/polyphenol in mg/tablet, 3 months 40° C. [4]: 8.5 mg
